Laboratory results from patent publication US10189854B2, “Substituted pyrimidine compounds” (Grünenthal GmbH, priority 2014, dated 2019).

target: T1, human PDE4B1 (Homo sapiens (Human), UniProt Q07343); assay: cAMP HTRF assay to determine the activity of hPDE4B1; format: biochemical; settings: IC50 inhibition of PDE4B; human recombinant PDE4B1, cAMP HTRF assay
How it was run: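 Recombinant human PDE4B1 expressed in Sf9 cells (4.8 U) was incubated with 40 nM cAMP for 30 min at room temperature in Tris buffer, pH 7.8, with MgCl2, DTT and Tween 20. HTRF detection of remaining cAMP followed, with 1 mM IBMX stop, read 60 min later as the 665/620 nm ratio. Results are % inhibition versus control.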

T1 sequence (Q07343 whole entry): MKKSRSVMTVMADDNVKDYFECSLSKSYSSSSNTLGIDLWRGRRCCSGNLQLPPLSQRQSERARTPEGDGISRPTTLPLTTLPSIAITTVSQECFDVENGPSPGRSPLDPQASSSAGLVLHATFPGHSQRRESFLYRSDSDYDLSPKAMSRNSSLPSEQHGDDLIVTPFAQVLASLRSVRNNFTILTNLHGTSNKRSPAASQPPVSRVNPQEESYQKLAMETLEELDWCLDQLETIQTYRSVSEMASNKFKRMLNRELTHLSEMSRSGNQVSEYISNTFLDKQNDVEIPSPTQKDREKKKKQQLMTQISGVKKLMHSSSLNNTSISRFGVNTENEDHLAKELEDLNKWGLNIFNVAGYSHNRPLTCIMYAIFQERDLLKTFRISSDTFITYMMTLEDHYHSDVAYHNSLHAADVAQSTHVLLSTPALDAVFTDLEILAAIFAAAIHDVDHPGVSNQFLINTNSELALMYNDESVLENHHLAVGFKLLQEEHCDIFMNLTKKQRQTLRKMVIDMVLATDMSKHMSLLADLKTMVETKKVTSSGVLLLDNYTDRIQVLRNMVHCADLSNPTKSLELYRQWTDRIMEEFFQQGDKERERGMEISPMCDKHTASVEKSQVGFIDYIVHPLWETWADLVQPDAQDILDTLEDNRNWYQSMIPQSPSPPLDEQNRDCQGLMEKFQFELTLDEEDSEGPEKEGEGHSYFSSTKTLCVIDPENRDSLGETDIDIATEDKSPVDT

Row | IC50 [µM] | Molecule
1 | < 0.1 | O=C(c1ccc2c(c1)N(c1ncc(-c3ccc(CO)s3)cn1)CC21CC1)N1CCOCC1 [Compound 149, [1-[5-[5-(Hydroxymethyl)-thiophen-2-yl]-pyrimidin-2-yl]-spiro[1,2-dihydro-indole-3,1′-cyclopropane]-6-yl]-morpholin-4-yl-methanone]
2 | 0.1 to 1 | CN(C)C(=O)c1ccccc1-c1cnc(N2CC3(CC3)c3ccc(C(=O)N4CCOCC4)cc32)nc1 [Compound 21, N,N-Dimethyl-2-[2-[6-(morpholine-4-carbonyl)-spiro[1,2-dihydro-indole-3,1′-cyclopropane]-1-yl]-pyrimidin-5-yl]-benzamide]
3 | < 0.1 | 4-[1-[5-(3-Fluorophenyl)-pyrimidin-2-yl]-spiro[1,2-dihydro-indole-3,1′-cyclopropane]-6-carbonyl]-piperazin-2-one [Compound 188]
4 | 0.1 to 1 | O=C(c1ccc2c(c1)N(c1ncc(-c3ccc(Cl)s3)cn1)CC21CC1)N1CCOCC1 [Compound 131, [1-[5-(5-Chloro-thiophen-2-yl)-pyrimidin-2-yl]-spiro[1,2-dihydro-indole-3,1′-cyclopropane]-6-yl]-morpholin-4-yl-methanone]
5 | < 0.1 | [1-[5-(4-Amino-pyridin-2-yl)-pyrimidin-2-yl]-spiro[1,2-dihydro-indole-3,1′-cyclopropane]-6-yl]-morpholin-4-yl-methanone [Compound 181]
6 | < 0.1 | CN(C)CCN(C)C(=O)c1ccc2c(c1)N(c1ncc(-c3ccccc3F)cn1)CC21CC1 [Compound 99, N-[2-(Dimethylamino)ethyl]-1-[5-(2-fluorophenyl)-pyrimidin-2-yl]-N-methyl-spiro[1,2-dihydro-indole-3,1′-cyclopropane]-6-carboxylic acid amide]
7 | < 0.1 | O=C1CN(C(=O)c2ccc3c(c2)N(c2ncc(-c4ccccn4)cn2)CC32CC2)CCN1 [Compound 180, 4-[1-(5-Pyridin-2-yl-pyrimidin-2-yl)-spiro[1,2-dihydro-indole-3,1′-cyclopropane]-6-carobnyl]-piperazin-2-one]
8 | < 0.1 | [1-[5-(6-Methyl-pyridazin-3-yl)-pyrimidin-2-yl]-spiro[1,2-dihydro-indole-3,1′-cyclopropane]-6-yl]-morpholin-4-yl-methanone [Compound 196]
9 | < 0.1 | [1-[5-(2-Methyl-pyrimidin-4-yl)-pyrimidin-2-yl]-spiro[1,2-dihydro-indole-3,1′-cyclopropane]-6-yl]-morpholin-4-yl-methanone [Compound 185]
10 | < 0.1 | O=C(c1ccc2c(c1)N(c1ncc(-c3ccccc3F)cn1)CC21CC1)N1CCCC(O)C1 (centres unmarked) [Compound 96, [1-[5-(2-Fluorophenyl)-pyrimidin-2-yl]-spiro[1,2-dihydro-indole-3,1′-cyclopropane]-6-yl]-(3-hydroxy-piperidin-1-yl)-methanone]
11 | < 0.1 | NC(=O)c1ccc(F)c(-c2cnc(N3CC4(CC4)c4ccc(C(=O)N5CCNCC5)cc43)nc2)c1 [Compound 116, 4-Fluoro-3-[2-[6-(piperazine-1-carbonyl)-spiro[1,2-dihydro-indole-3,1′-cyclopropane]-1-yl]-pyrimidin-5-yl]-benzamide]
12 | < 0.1 | Morpholin-4-yl-[1-[5-[4-(trifluoromethyl)-pyridin-2-yl]-pyrimidin-2-yl]-spiro[1,2-dihydro-indole-3,1′-cyclopropane]-6-yl]-methanone [Compound 195]
13 | < 0.1 | O=C(c1ccc2c(c1)N(c1ncc(-c3ccncc3F)cn1)CC21CC1)N1CCOCC1 [Compound 147, [1-[5-(3-Fluoro-pyridin-4-yl)-pyrimidin-2-yl]-spiro[1,2-dihydro-indole-3,1′-cyclopropane]-6-yl]-morpholin-4-yl-methanone]
14 | 0.1 to 1 | CC1COCC(C)N1C(=O)c1ccc2c(c1)N(c1ncc(-c3ccccc3F)cn1)CC21CC1 (centres unmarked) [Compound 101, (3,5-Dimethyl-morpholin-4-yl)-[1-[5-(2-fluorophenyl)-pyrimidin-2-yl]-spiro[1,2-dihydro-indole-3,1′-cyclopropane]-6-yl]-methanone]
15 | < 0.1 | CN[C@@H]1CCN(C(=O)c2ccc3c(c2)N(c2ncc(-c4ccccc4F)cn2)CC32CC2)C1 [Compound 121, [1-[5-(2-Fluorophenyl)-pyrimidin-2-yl]-spiro[1,2-dihydro-indole-3,1′-cyclopropane]-6-yl]-[(3R)-3-methylamino-pyrrolidin-1-yl]-methanone]

target: T1, human PDE4B1; assay: TR-FRET assay using the LANCE Ultra cAMP kit to determine the activity of hPDE4B1; format: biochemical; settings: IC50 inhibition of PDE4B, mean
From the text: TR-FRET Assay Using the LANCE® Ultra cAMP Kit to Determine the Activity of hPDE4B1
The effects of the compounds on the activity of the human PDE4B1 was quantified by measuring the production of 5′AMP from cAMP using a human recombinant enzyme expressed in Sf9 cells and the LANCE® Ultra cAMP kit, a TR-FRET detection method from PerkinElmer. The human PDE4B1 enzyme was purchased from SignalChem Lifesciences (Catalog# P92-31BG, Lot# H296-2).
The test compound, reference compound or water (control) was mixed with the enzyme (0.96 U) in a reaction buffer containing 50 mM Tris-HCl, 50 mM MgCl2 and 5 mM DTT (pH 8.5). Thereafter, the reaction was initiated by addition of 500 nM cAMP (substrate) and the mixture was incubated for 30 minutes at room temperature. For control basal measurements, the enzyme was omitted from the reaction mixture. After 30 minutes, the reaction was stopped and diluted by a factor of 100 with the reaction buffer supplemented with 500 μM IBMX. The fluorescence donor (europium chelate-labeled cAMP) and the fluorescence acceptor (anti-cAMP antibody labeled with the ULight™ dye) were then added together with 500 μM IBMX to a 10 μl aliquot. After 60 minutes, the fluorescence transfer corresponding to the amount of residual cAMP was measured at λex=337 nm, λem=620 nm and λem=665 nm using a microplate reader (PHERAstar, BMG). The enzyme activity was determined by dividing the signal measured at 665 nm by that measured at 620 nm (ratio) multiplied by 10000. The results were expressed as percent inhibition of the control enzyme activity. IC50 values (IC50=concentration causing a half-maximal inhibition of control specific activity) were derived from dose response measurements with ten different concentrations (n=3; N=1-3).
Several compounds according to the invention are tested with above mentioned assay.

Row | IC50 [µM] | Molecule
16 | < 0.1 | O=C(c1ccc2c(c1)N(c1ncc(-c3ccccc3F)cn1)CC21CC1)N1C[C@@H]2C[C@H]1CN2 [Compound 221, [(1S,4S)-2,5-Diazabicyclo[2.2.1]heptan-2-yl]-[1-[5-(2-fluorophenyl)-pyrimidin-2-yl]-spiro[1,2-dihydro-indole-3,1′-cyclopropane]-6-yl]-methanone]
17 | < 0.1 | Cc1cc(N)cc(-c2cnc(N3CC4(CC4)c4ccc(C(=O)N(C)CCO)cc43)nc2)n1 [Compound 261, 1-[5-(4-Amino-6-methyl-pyridin-2-yl)-pyrimidin-2-yl]-N-(2-hydroxy-ethyl)-N-methyl-spiro[1,2-dihydro-indole-3,1′-cyclopropane]-6-carboxylic acid amide]
18 | < 0.1 | COc1ccc(F)c(-c2cnc(N3CC4(CC4)c4ccc(C(=O)N(C)CCO)cc43)nc2)c1 [Compound 253, 1-[5-(2-Fluoro-5-methoxy-phenyl)-pyrimidin-2-yl]-N-(2-hydroxy-ethyl)-N-methyl-spiro[1,2-dihydro-indole-3,1′-cyclopropane]-6-carboxylic acid amide]
19 | < 0.1 | CN(CCO)C(=O)c1ccc2c(c1)N(c1ncc(-c3cc(NCC4CC4)ccc3F)cn1)CC21CC1 [Compound 333, 1-[5-[5-(Cyclopropyl-methylamino)-2-fluoro-phenyl]-pyrimidin-2-yl]-N-(2-hydroxy-ethyl)-N-methyl-spiro[1,2-dihydro-indole-3,1′-cyclopropane]-6-carboxylic acid amide]
20 | < 0.1 | CC(O)c1ccnc(-c2cnc(N3CC4(CC4)c4ccc(C(=O)N(C)CCO)cc43)nc2)c1 (centres unmarked) [Compound 318, N-(2-Hydroxy-ethyl)-1-[5-[4-(1-hydroxy-ethyl)-pyridin-2-yl]-pyrimidin-2-yl]-N-methyl-spiro[1,2-dihydro-indole-3,1′-cyclopropane]-6-carboxylic acid amide]
21 | < 0.1 | CCc1ccnc(-c2cnc(N3CC4(CC4)c4ccc(C(=O)N(C)C)cc43)nc2)c1 [Compound 270, 1-[5-(4-Ethyl-pyridin-2-yl)-pyrimidin-2-yl]-N,N-dimethyl-spiro[1,2-dihydro-indole-3,1′-cyclopropane]-6-carboxylic acid amide]
22 | < 0.1 | Cc1cccc(-c2cnc(N3CC4(CC4)c4ccc(C(=O)N5C[C@@H]6C[C@H]5CN6)cc43)nc2)n1 [Compound 305, [(1S,4S)-2,5-Diazabicyclo[2.2.1]heptan-2-yl]-[1-[5-(6-methyl-pyridin-2-yl)-pyrimidin-2-yl]-spiro[1,2-dihydro-indole-3,1′-cyclopropane]-6-yl]-methanone]
23 | < 0.1 | CNC(=O)CN(C)C(=O)c1ccc2c(c1)N(c1ncc(-c3cc(C)ccn3)cn1)CC21CC1 [Compound 360, N-Methyl-N-(methylcarbamoyl-methyl)-1-[5-(4-methyl-pyridin-2-yl)-pyrimidin-2-yl]-spiro[1,2-dihydro-indole-3,1′-cyclopropane]-6-carboxylic acid amide]
24 | < 0.1 | CCc1ccnc(-c2cnc(N3CC4(CC4)c4ccc(C(=O)N(C)CCO)cc43)nc2)c1 [Compound 241, 1-[5-(4-Ethyl-pyridin-2-yl)-pyrimidin-2-yl]-N-(2-hydroxy-ethyl)-N-methyl-spiro[1,2-dihydro-indole-3,1′-cyclopropane]-6-carboxylic acid amide]
25 | < 0.1 | O=C(c1ccc2c(c1)N(c1ncc(-c3cc(C4CC4)ccn3)cn1)CC21CC1)N1CCC[C@H](CO)C1 [Compound 332, [1-[5-(4-Cyclopropyl-pyridin-2-yl)-pyrimidin-2-yl]-spiro[1,2-dihydro-indole-3,1′-cyclopropane]-6-yl]-[(3S)-3-(hydroxymethyl)-piperidin-1-yl]-methanone]
26 | < 0.1 | CN(C)C(=O)c1ccc2c(c1)N(c1ncc(-c3ccccn3)cn1)CC21CC1 [Compound 306, N,N-Dimethyl-1-(5-pyridin-2-yl-pyrimidin-2-yl)-spiro[1,2-dihydro-indole-3,1′-cyclopropane]-6-carboxylic acid amide]
